Results reported in US20100285959A1, “HERBICIDAL MIXTURES” (priority 2006, published 2010).
Values belong to the molecule of their own block, whether it stands above or below them.

Legend:
rice (ORYSA) = test: Test 32 greenhouse, simulated flooded rice culture; assay type: in vivo, Oryza sativa; settings: postemergence to flood, 21 DAA
Procedure: A greenhouse trial was conducted to evaluate the effects of Compound 1 and isoxadifen-ethyl at different ratios in simulated flooded rice culture. Plastic pots (11-cm diameter) were partially filled with non-sterilized Tama silt loam soil containing a 15:57:28 ratio of sand, silt and clay and 2.9% organic matter. Seeds of Heteranthera limosa (ducksalad; HETLI), Cyperus difformis (smallflower umbrella sedge; CYPDI), one stand of Echinochloa crus-galli (barnyardgrass; ECHCG), and one stand of four rice seedlings (Oryza sativa cv. ‘M202’; ORYSA) were planted into a single 11-cm diameter pot for each rate and mixture of rates. To obtain this planting, C. difformis and H. limosa seeds were planted separately on the surface soil layer at particular locations within each pot. Water levels were brought to a puddled condition above the soil surface directly after planting. E. crus-galli and rice seeds were planted in cavity trays in the silt loam soil and transplanted at the 1.5 and 2.0 leaf stage, respectively. E. crus-galli and rice plants were transplanted to about 2-cm depth by transferring plugs from the cavity trays. Plantings were sequential so that these plant species all reached the 2.0- to 2.5-leaf stage in the 11-cm diameter pot at time of treatment. Plantings were established and maintained in a greenhouse with day and night temperatures of about 29.5 and 26.7° C. respectively; supplemental balanced lighting was provided to maintain a 16-hour photoperiod. Pots were fertilized periodically with a 200 ppm solution of commercial Scotts Peters® Professional® General Purpose 20-20-20 Water Soluble Fertilizer, amended to 10 ppm with a commercial iron-chelate micronutrient fertilizer. The solution was supplied at time of watering via a liquid fertilizer injector.
At treatment time, test pots were flooded to 3 cm above the soil surface and maintained at that water depth for the duration of the test. Chemical treatments were formulated in acetone and applied directly to the paddy water (i.e., postemergence to flood). Make-up volumes of acetone were added to ensure that all pots were treated with a consistent volume. Test pots were maintained in the greenhouse. A randomized complete block design was employed. Five replicates of each treatment, alone and in mixture, were used. Each species was visually evaluated for treatment effects by comparing those treated to untreated controls and rated for plant response after 21 days.

giant ragweed (AMBTR) = test: Test 25 field trial, postemergence, growth as percent of control; assay type: in vivo, Ambrosia trifida; settings: 14 DAA
Description: (§1) Corn seeds (hybrid ‘Pioneer 31G96 RR’) were planted in mid spring season, 3.8 cm deep in a clay loam soil having 2% organic matter and a pH of 6.6. Plots were 6.1 m long by 3.0 m wide with rows spaced 76 cm apart. Seeds were spaced 15 cm apart within the rows. The field was managed using conventional tillage practices. […] Giant ragweed and Pennsylvania smartweed could only be evaluated 14 days after application. […] Results are the means of the three replicates. This growth inhibition data was converted to results in the form of “plant growth as a percent of control plant growth” using the calculation “100 minus growth inhibition”.
(§2) When this form of Colby's Equation is used, if the observed effects on weeds are less than the expected values, the mixture is synergistic.

velvetleaf (ABUTH) [1] = test: Test 26 field trial, postemergence; assay type: in vivo, Abutilon theophrasti
Description: (§3) Corn seeds (hybrid ‘Pioneer 31G96’) were planted in mid spring season, 3.8 cm deep in a silt loam soil having 2% organic matter and a pH of 6.6. Plots were 6.1 m long by 3.0 m wide with rows spaced 76 cm apart. Seeds were spaced 15 cm apart within the rows. The field was managed using conventional tillage practices. […] All treatments also included a surfactant. […] Some of the weed species could not be evaluated at every timing. […] Results are the means of the three replicates.

kochia (KCHSC) = test: Test 27 field trial, postemergence; assay type: in vivo, Kochia scoparia; set-up: scale not given here
Description: Wheat seeds (cv. ‘Custer’) were planted in late fall season in a clay loam soil. Plots were 9 m long by 1.8 m wide. The field was managed using conventional tillage practices. […] All treatments also included a surfactant. […] Results are the means of the three replicates.

velvetleaf (ABUTH) [2] = test: Test 25 field trial, postemergence, growth as percent of control; assay type: in vivo, Abutilon theophrasti
Description: as §1, §2

common ragweed (AMBEL) = test: Test 26 field trial, postemergence; assay type: in vivo, Ambrosia artemisiifolia; set-up: scale not given here
Description: as §3

ORYSA Obs (rice (ORYSA); Cpd 1 31.25 g a.i./ha): 9%
ORYSA Obs (rice (ORYSA); Cpd 1 62.5 g a.i./ha): 15%
ORYSA Obs (rice (ORYSA); Cpd 1 125 g a.i./ha): 27%
Structure (SMILES): Nc1nc(C2CC2)nc(C(=O)O)c1Cl [Compound 1, 6-amino-5-chloro-2-cyclopropyl-4-pyrimidinecarboxylic acid]

Structure (SMILES): COC(=O)c1nc(C2CC2)nc(N)c1Cl [Compound 2, methyl 6-amino-5-chloro-2-cyclopropyl-4-pyrimidinecarboxylate]
AMBTR Obs (percent of control) (giant ragweed (AMBTR); Cpd 2 30 g a.i./ha): 5%
AMBTR Obs (percent of control) (giant ragweed (AMBTR); Cpd 2 45 g a.i./ha): 0%
ABUTH Obs (velvetleaf (ABUTH) [1]; 14 DAA, 30 g a.i./ha): 86
ABUTH Obs (velvetleaf (ABUTH) [1]; 14 DAA, 45 g a.i./ha): 64
ABUTH Obs (velvetleaf (ABUTH) [1]; 14 DAA, 60 g a.i./ha): 95
ABUTH Obs (velvetleaf (ABUTH) [1]; 28 DAA, 30 g a.i./ha): 80
ABUTH Obs (velvetleaf (ABUTH) [1]; 28 DAA, 45 g a.i./ha): 59
ABUTH Obs (velvetleaf (ABUTH) [1]; 28 DAA, 60 g a.i./ha): 90
ABUTH Obs (velvetleaf (ABUTH) [1]; 56 DAA, 30 g a.i./ha): 40
ABUTH Obs (velvetleaf (ABUTH) [1]; 56 DAA, 45 g a.i./ha): 57
ABUTH Obs (velvetleaf (ABUTH) [1]; 56 DAA, 60 g a.i./ha): 63
KCHSC Obs (kochia (KCHSC); 16 DAA, 15 g a.i./ha): 30
KCHSC Obs (kochia (KCHSC); 16 DAA, 30 g a.i./ha): 65
KCHSC Obs (kochia (KCHSC); 16 DAA, 45 g a.i./ha): 78
KCHSC Obs (kochia (KCHSC); 28 DAA, 15 g a.i./ha): 43
KCHSC Obs (kochia (KCHSC); 28 DAA, 30 g a.i./ha): 79
KCHSC Obs (kochia (KCHSC); 28 DAA, 45 g a.i./ha): 94
KCHSC Obs (kochia (KCHSC); 49 DAA, 15 g a.i./ha): 32
KCHSC Obs (kochia (KCHSC); 49 DAA, 30 g a.i./ha): 73
KCHSC Obs (kochia (KCHSC); 49 DAA, 45 g a.i./ha): 96
ABUTH Obs (percent of control) (velvetleaf (ABUTH) [2]; Cpd 2 15 g a.i./ha, 14 DAA): 70%
ABUTH Obs (percent of control) (velvetleaf (ABUTH) [2]; Cpd 2 15 g a.i./ha, 28 DAA): 72%
ABUTH Obs (percent of control) (velvetleaf (ABUTH) [2]; Cpd 2 15 g a.i./ha, 56 DAA): 62%
ABUTH Obs (percent of control) (velvetleaf (ABUTH) [2]; Cpd 2 30 g a.i./ha, 14 DAA): 45%
ABUTH Obs (percent of control) (velvetleaf (ABUTH) [2]; Cpd 2 30 g a.i./ha, 28 DAA): 53%
ABUTH Obs (percent of control) (velvetleaf (ABUTH) [2]; Cpd 2 30 g a.i./ha, 56 DAA): 28%
ABUTH Obs (percent of control) (velvetleaf (ABUTH) [2]; Cpd 2 45 g a.i./ha, 14 DAA): 37%
ABUTH Obs (percent of control) (velvetleaf (ABUTH) [2]; Cpd 2 45 g a.i./ha, 28 DAA): 40%
ABUTH Obs (percent of control) (velvetleaf (ABUTH) [2]; Cpd 2 45 g a.i./ha, 56 DAA): 20%
AMBEL Obs (common ragweed (AMBEL); 14 DAA, 30 g a.i./ha): 94
AMBEL Obs (common ragweed (AMBEL); 14 DAA, 45 g a.i./ha): 67
AMBEL Obs (common ragweed (AMBEL); 14 DAA, 60 g a.i./ha): 98
AMBEL Obs (common ragweed (AMBEL); 28 DAA, 30 g a.i./ha): 88
AMBEL Obs (common ragweed (AMBEL); 28 DAA, 45 g a.i./ha): 95
AMBEL Obs (common ragweed (AMBEL); 28 DAA, 60 g a.i./ha): 98
AMBEL Obs (common ragweed (AMBEL); 56 DAA, 30 g a.i./ha): 73
AMBEL Obs (common ragweed (AMBEL); 56 DAA, 45 g a.i./ha): 95
AMBEL Obs (common ragweed (AMBEL); 56 DAA, 60 g a.i./ha): 95
